Results taken from patent publication US20090191253A2 (Creabilis Therapeutics S.P.A., priority 2005, published 2009).

Experiments:
Format in all cases: biochemical
[1] = biological target: T1, ALK (Homo sapiens, UniProt Q9UM73); test: Kinase inhibition profiling ALK (ELISA)
T1 construct: Cytoplasmic domain of human ALK [1089-1620; His (N, cleaved yes); made in house; host or cells: baculovirus expression system
Description: (§1) Each test compound was weighed and dissolved in DMSO to make 1 mM stock solution. The stock solution was diluted with DMSO to achieve 20 μM. The compound solution was diluted with the assay buffer to achieve 0.8 μM.

[2] = biological target: T2, MER (Homo sapiens, UniProt Q12866); test: Kinase inhibition profiling MER (ELISA)
T2 construct: made in house; host or cells: baculovirus expression system
T2 sequence (Q12866 528-999): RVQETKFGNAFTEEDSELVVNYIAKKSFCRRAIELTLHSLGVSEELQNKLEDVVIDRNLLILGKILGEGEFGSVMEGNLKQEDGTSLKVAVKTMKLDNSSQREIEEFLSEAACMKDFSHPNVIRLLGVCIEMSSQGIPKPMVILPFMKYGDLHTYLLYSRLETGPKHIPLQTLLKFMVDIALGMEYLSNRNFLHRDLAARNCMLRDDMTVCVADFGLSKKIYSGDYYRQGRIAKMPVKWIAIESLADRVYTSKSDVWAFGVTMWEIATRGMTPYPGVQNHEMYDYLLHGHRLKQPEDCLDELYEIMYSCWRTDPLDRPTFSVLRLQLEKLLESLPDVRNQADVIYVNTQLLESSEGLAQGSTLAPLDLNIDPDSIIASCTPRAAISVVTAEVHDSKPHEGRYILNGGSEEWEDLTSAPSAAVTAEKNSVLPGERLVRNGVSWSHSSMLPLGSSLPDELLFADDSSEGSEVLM
Description: as §1

[3] = biological target: T3, EGFR (Homo sapiens, UniProt P00533); test: Kinase inhibition profiling EGFR (ELISA); also: ATP 5 µM
T3 construct: Cytoplasmic domain of human EGFR [669-1210 amino; made in house; host or cells: baculovirus expression system
Description: as §1

[4] = biological target: T4, HER4 (Homo sapiens, UniProt Q15303); test: Kinase inhibition profiling HER4 (ELISA)
T4 construct: Cytoplasmic domain of human HER4 [676-1308 amino; made in house; host or cells: baculovirus expression system
T4 sequence (Q15303 676-1308): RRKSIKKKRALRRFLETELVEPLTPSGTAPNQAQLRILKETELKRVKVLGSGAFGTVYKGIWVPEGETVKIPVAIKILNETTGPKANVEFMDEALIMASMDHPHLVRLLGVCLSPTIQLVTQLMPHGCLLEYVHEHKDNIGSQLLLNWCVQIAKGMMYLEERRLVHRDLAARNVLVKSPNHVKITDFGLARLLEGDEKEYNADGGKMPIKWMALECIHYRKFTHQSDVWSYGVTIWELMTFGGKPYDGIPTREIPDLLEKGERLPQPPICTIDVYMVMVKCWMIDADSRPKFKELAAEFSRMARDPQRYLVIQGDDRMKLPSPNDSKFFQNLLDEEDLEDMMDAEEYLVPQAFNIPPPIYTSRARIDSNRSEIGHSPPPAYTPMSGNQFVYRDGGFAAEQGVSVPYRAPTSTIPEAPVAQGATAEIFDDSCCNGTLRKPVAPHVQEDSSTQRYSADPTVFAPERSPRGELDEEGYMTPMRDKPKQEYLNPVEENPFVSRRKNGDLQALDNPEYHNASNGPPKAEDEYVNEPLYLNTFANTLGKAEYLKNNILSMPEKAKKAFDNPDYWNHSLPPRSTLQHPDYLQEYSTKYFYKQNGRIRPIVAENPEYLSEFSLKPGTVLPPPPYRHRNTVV
Description: as §1

[5] = biological target: T5, INSR (Homo sapiens, UniProt P06213); test: Kinase inhibition profiling INSR (ELISA)
T5 construct: Kinase domain (KD) of human INSR [1005-1310 amino; His (N, cleaved yes); made in house; host or cells: baculovirus expression system
T5 sequence (P06213 1005-1310): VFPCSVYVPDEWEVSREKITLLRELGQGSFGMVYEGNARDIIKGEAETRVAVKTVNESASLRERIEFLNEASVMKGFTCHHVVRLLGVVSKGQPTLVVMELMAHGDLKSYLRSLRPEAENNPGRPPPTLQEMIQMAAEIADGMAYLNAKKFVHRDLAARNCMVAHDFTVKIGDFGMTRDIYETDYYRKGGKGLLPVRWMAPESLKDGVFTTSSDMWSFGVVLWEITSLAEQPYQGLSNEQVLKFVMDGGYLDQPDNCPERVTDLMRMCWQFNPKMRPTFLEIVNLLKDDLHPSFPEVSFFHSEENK
Description: as §1

[6] = biological target: T6, JAK3 (Homo sapiens, UniProt P52333); test: Kinase inhibition profiling JAK3 (ELISA); also: ATP 5 µM
T6 construct: Kinase domain (KD) of human JAK3 [795-1124 amino; made in house; host or cells: baculovirus expression system
T6 sequence (P52333 795-1124): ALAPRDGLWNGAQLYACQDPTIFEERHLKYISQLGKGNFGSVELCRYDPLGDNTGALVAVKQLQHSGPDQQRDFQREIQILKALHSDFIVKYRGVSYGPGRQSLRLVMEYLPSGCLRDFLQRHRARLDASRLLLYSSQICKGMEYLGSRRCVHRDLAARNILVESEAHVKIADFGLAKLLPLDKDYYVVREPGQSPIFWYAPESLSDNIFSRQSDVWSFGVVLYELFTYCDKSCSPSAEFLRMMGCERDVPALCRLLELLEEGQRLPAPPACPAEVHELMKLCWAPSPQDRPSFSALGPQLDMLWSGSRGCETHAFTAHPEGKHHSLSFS
Description: as §1

[7] = biological target: T7, PDGFRβ (Homo sapiens, UniProt P09619); test: Kinase inhibition profiling PDGFRβ (ELISA)
T7 construct: Cytoplasmic domain of human PDGFRβ [557-1106 amino; made in house; host or cells: baculovirus expression system
Description: as §1

[8] = biological target: T8, FGR (Homo sapiens, UniProt P09769); test: Kinase inhibition profiling FGR (ELISA); also: ATP 5 µM
T8 construct: His (N, cleaved yes); made in house; host or cells: baculovirus expression system
Description: (§2) In particular, the target kinases were Tyrosine kinases and Serine/Threonine kinases.
as §1

[9] = biological target: T9, HCK (Homo sapiens, UniProt P08631); test: Kinase inhibition profiling HCK (ELISA); also: ATP 20 µM
T9 construct: made in house; host or cells: baculovirus expression system
Description: as §2, §1

[10] = biological target: T10, LCK (Homo sapiens, UniProt P06239); test: Kinase inhibition profiling LCK (ELISA)
T10 construct: made in house; host or cells: baculovirus expression system
Description: as §2, §1

[11] = biological target: T11, LYNa (Homo sapiens, UniProt P07948); test: Kinase inhibition profiling LYNa (ELISA)
T11 construct: made in house; host or cells: baculovirus expression system
T11 sequence (P07948 whole entry): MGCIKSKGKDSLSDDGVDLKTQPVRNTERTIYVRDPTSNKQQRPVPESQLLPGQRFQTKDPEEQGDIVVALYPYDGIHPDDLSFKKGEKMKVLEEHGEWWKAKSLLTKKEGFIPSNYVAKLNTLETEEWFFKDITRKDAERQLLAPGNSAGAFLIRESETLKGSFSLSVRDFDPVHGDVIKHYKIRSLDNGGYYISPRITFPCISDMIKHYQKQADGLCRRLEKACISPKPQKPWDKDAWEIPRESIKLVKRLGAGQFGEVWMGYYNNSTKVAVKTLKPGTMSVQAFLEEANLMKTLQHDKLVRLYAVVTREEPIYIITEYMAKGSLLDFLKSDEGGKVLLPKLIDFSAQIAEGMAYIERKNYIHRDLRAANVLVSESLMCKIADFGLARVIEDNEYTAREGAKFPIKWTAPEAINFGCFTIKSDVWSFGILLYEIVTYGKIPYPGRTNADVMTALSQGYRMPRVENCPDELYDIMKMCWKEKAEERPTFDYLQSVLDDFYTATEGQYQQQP
Description: as §1

[12] = biological target: T12, YES (Homo sapiens, UniProt P07947); test: Kinase inhibition profiling YES (ELISA)
T12 construct: made in house; host or cells: baculovirus expression system
T12 sequence (P07947 whole entry): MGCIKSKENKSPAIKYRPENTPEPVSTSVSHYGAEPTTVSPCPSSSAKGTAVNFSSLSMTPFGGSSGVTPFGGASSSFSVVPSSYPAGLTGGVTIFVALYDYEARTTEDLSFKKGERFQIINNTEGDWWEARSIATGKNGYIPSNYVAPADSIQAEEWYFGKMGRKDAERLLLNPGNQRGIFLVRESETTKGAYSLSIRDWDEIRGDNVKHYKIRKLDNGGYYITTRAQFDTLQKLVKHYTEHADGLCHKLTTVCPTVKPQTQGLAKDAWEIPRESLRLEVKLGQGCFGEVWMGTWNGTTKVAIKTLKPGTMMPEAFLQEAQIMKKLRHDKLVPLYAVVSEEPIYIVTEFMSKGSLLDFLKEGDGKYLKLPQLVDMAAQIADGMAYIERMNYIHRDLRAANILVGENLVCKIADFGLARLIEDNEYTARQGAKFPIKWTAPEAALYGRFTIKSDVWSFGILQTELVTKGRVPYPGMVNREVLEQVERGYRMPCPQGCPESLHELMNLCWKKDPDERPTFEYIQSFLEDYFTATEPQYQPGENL
Description: as §2, §1

[13] = biological target: T13, TrkB (Homo sapiens, UniProt Q16620); test: Kinase inhibition profiling TrkB (ELISA)
T13 construct: Cytoplasmic domain of human TRKB [456-822 amino; made in house; host or cells: baculovirus expression system
T13 sequence (Q16620 456-822): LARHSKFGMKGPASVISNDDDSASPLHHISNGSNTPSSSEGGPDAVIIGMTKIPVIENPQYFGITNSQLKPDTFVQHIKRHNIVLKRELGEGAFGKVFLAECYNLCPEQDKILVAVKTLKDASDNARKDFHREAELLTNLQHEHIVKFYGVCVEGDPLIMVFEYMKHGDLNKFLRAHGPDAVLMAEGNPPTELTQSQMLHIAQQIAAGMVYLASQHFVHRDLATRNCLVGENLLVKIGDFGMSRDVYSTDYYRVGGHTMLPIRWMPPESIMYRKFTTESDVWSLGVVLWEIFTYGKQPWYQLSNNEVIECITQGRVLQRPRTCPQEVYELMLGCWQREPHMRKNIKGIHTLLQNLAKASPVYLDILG
Description: as §2, §1

[14] = biological target: T14, FLT1 (Homo sapiens, UniProt P17948); test: Kinase inhibition profiling FLT1 (ELISA); also: ATP 20 µM
T14 construct: Cytoplasmic domain of human FLT1 [781-1338 amino; made in house; host or cells: baculovirus expression system
Description: as §2, §1

[15] = biological target: T15, PKACα (Homo sapiens, UniProt P17612); test: Kinase inhibition profiling PKACα (IMAP)
T15 construct: made in house; host or cells: baculovirus expression system
Description: as §2, §1

[16] = biological target: T16, PKCγ (Homo sapiens, UniProt P05129); test: Kinase inhibition profiling PKCγ (IMAP)
T16 construct: made in house; host or cells: baculovirus expression system
Description: as §1

[17] = biological target: T17, JNK2 (Homo sapiens, UniProt P45984); test: Kinase inhibition profiling JNK2 (ELISA); also: ATP 5 µM
T17 construct: Human JNK2 containing 424 amino acids was expressed; His (C); made in house; host or cells: E. coli
T17 sequence (P45984 whole entry): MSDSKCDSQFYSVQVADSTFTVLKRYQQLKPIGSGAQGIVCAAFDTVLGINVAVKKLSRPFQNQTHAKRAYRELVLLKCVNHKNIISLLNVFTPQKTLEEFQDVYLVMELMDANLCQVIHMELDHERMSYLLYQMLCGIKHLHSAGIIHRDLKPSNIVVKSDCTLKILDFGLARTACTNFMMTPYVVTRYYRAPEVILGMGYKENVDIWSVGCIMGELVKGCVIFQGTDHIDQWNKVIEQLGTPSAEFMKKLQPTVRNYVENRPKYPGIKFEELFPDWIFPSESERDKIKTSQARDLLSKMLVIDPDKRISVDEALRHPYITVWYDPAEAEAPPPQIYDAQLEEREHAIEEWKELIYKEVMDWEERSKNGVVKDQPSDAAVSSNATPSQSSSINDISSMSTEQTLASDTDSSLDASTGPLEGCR
Description: as §1

[18] = biological target: T18, AurA (Homo sapiens, UniProt O14965); test: Kinase inhibition profiling AurA (IMAP)
T18 construct: GST (N); made in house; host or cells: baculovirus expression system
T18 sequence (O14965 whole entry): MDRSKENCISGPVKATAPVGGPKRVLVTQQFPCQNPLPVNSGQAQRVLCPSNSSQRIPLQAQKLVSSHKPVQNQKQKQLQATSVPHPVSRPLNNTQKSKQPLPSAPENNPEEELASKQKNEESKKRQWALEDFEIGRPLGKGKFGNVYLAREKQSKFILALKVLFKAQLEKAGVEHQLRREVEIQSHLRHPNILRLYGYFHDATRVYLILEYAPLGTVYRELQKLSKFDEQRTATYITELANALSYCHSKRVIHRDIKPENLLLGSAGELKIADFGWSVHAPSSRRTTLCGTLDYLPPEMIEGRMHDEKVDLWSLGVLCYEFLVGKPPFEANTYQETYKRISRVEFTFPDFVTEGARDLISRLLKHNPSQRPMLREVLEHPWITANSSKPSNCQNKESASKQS
Description: as §1

[19] = biological target: T19, IKKβ (Homo sapiens, UniProt O14920); test: Kinase inhibition profiling IKKβ (IMAP)
T19 construct: Human IKKβ with 662 amino acids were expressed; His (N); made in house; host or cells: insect cells
Description: as §1

[20] = biological target: T20, IRAK4 (Homo sapiens, UniProt Q9NWZ3); test: Kinase inhibition profiling IRAK4 (IMAP); also: ATP 80 µM
T20 construct: Kinase domain (KD) of Human IRAK4 [172-460 amino; GST (N); made in house; host or cells: baculovirus expression system
T20 sequence (Q9NWZ3 172-460): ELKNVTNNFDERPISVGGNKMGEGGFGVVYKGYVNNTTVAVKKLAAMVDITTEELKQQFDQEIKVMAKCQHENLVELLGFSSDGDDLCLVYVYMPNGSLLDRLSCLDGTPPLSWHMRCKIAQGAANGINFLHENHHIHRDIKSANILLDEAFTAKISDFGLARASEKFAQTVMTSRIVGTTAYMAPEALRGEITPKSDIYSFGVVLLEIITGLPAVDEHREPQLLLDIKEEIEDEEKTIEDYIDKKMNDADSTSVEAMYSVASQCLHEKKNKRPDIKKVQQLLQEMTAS
Description: as §1

T1 sequence (Q9UM73 1089-1620): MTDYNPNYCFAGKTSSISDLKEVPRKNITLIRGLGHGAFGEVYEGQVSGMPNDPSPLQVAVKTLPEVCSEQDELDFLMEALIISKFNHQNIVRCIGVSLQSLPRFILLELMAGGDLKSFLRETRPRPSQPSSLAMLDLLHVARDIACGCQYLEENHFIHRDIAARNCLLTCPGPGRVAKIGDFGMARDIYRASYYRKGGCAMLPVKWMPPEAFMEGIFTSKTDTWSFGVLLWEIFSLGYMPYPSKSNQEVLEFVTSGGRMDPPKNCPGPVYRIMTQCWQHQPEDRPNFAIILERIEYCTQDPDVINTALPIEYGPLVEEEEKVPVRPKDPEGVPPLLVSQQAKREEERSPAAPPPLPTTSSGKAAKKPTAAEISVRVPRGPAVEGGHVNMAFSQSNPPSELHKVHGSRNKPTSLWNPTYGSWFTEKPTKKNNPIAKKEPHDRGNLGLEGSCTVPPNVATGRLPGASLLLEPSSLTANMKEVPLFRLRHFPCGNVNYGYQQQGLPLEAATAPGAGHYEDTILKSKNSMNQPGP

Q: Which inhibition at 0.2 µM [1] does the source give for COC(=O)[C@]1(O)CC2O[C@@]1(C)n1c3ccccc3c3c4c(c5c6ccccc6n2c5c31)C(=O)NC4 [K-252a] here?
A: The inhibition at 0.2 µM was 69.5%.

Q: What about the inhibition at 0.2 µM [2] of the same compound?
A: The inhibition at 0.2 µM was 80.8%.

Q: And the inhibition at 0.2 µM [3]?
A: The inhibition at 0.2 µM was 16.4%.

Q: And the inhibition at 0.2 µM [4]?
A: Its inhibition at 0.2 µM is 39.4%.

Q: What about the inhibition at 0.2 µM [5] of the same compound?
A: The inhibition at 0.2 µM was 38%.

Q: What about the inhibition at 0.2 µM [6] of the same compound?
A: The inhibition at 0.2 µM was 100%.

Q: What about the inhibition at 0.2 µM [7] of the same compound?
A: Its inhibition at 0.2 µM is 98.1%.

Q: What about the inhibition at 0.2 µM [8] of the same compound?
A: The inhibition at 0.2 µM was 85.6%.

Q: And the inhibition at 0.2 µM [9]?
A: Its inhibition at 0.2 µM is 68.2%.

Q: And the inhibition at 0.2 µM [10]?
A: Its inhibition at 0.2 µM is 65.2%.

Q: What about the inhibition at 0.2 µM [11] of the same compound?
A: The inhibition at 0.2 µM was 58.9%.

Q: And the inhibition at 0.2 µM [12]?
A: The inhibition at 0.2 µM was 65.1%.

Q: And the inhibition at 0.2 µM [13]?
A: Its inhibition at 0.2 µM is 98.2%.

Q: And the inhibition at 0.2 µM [14]?
A: Its inhibition at 0.2 µM is 73.9%.

Q: What about the inhibition at 0.2 µM [15] of the same compound?
A: Its inhibition at 0.2 µM is 69.4%.

Q: And the inhibition at 0.2 µM [16]?
A: The inhibition at 0.2 µM was 53.3%.

Q: What about the inhibition at 0.2 µM [17] of the same compound?
A: Its inhibition at 0.2 µM is 91.4%.

Q: And the inhibition at 0.2 µM [18]?
A: The inhibition at 0.2 µM was 91.9%.

Q: What about the inhibition at 0.2 µM [19] of the same compound?
A: The inhibition at 0.2 µM was 2.7%.

Q: And the inhibition at 0.2 µM [20]?
A: The inhibition at 0.2 µM was 51.9%.
